pIC50: −log10 of the molar value. Values joined by “and” are separate entries in the source; they are usually repeats but may differ in a detail not shown here. Equal entries are not always repeated. Where two headings read alike, the source gives them in different places.
Tests used:
Hela = test: In vitro cytotoxicity, IC50 by MTT method, Hela; assay type: cell-based
Description: (§1) Culture medium powder RPMI1640 was dissolved in a proper amount of tri-distilled water according to the instruction of the product. […] It was the basic culture solution. The complete culture solution was added with FBS having a final concentration of 10%, 100 U/ml penicillin and 100 µg/ml streptomycin. The solution was fully stirred by a magnetic blender, and the pH of the solution was adjusted to 6.8-7.0. The volume was kept constant. After being filtered and disinfected, the solution was kept into several containers which were sealed and stored at 4° C.
(§2) The cells were placed in a culture dish followed by the addition of complete culture liquid RPMI1640 and then cultured in a incubator comprising 5% CO2 at 37° C. In the exponential growth phase, the cells grew vigorously. If the culture liquid became yellow, the liquid should be replaced instantly.
(§3) The cells, at a concentration of 10^5/ml, were inoculated at a 96-pore culture plate. In each pore, 100 μl cells were inoculated. The cells were placed in a CO2 incubator until the cells were in the logarithmic growth phase. The samples to be tested were added according to the preset concentration gradient. For each gradient, the test was conducted at least three times. An equivalent amount of solvent for dissolving the samples was added in the control group. After 48 h of culture, each pore was added 20 μl MTT (5 mg/ml). The cells were cultured at 37° C. for 4 h. After the supernatant was carefully removed, 100 μl DMSO was added in each pore. The plate was agitated for about 10 minutes such that the precipitates were dissolved. After that, OD value was identified with a Microplate Reader at the wavelength of 490 nm. The survival rate of the cells at various concentrations was calculated according to the following formula:
(§4) Survival rate %=average OD value of the sample group/average OD value of the control group×100%
(§5) Plots of log survival rate of the cells vs. concentration of the medicament were constructed, and the IC50 value of each sample was calculated according to graphing methods.

HepG2 = test: In vitro cytotoxicity, IC50 by MTT method, HepG2; assay type: cell-based, human
Description: as §1, §2, §3, §4, §5

NIH3T3 = test: In vitro cytotoxicity, IC50 by MTT method, NIH3T3; assay type: cell-based
Description: as §1, §2, §3, §4, §5

PLA-801 = test: In vitro cytotoxicity, IC50 by MTT method, PLA-801; assay type: cell-based
Description: as §1, §2, §3, §4, §5

BGC-823 = test: In vitro cytotoxicity, IC50 by MTT method, BGC-823; assay type: cell-based
Description: as §1, §2, §3, §4, §5

Lovo = test: In vitro cytotoxicity, IC50 by MTT method, Lovo; assay type: cell-based
Description: as §1, §2, §3, §4, §5

Bel-7402 = test: In vitro cytotoxicity, IC50 by MTT method, Bel-7402; assay type: cell-based
Description: as §1, §2, §3, §4, §5

Lewis lung cancer = details: Lewis lung cancer, listed as CTX;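 further: mice implanted subcutaneously in the axilla with Lewis lung tumor cells, treated starting the following day, killed roughly three weeks after implantation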
Description: There was one group of 8 to 10 mice C57BL/6 and Kunming mice for the anti-tumor tests and two groups of mice for negative control.
(3) Sources of tumors: Lewis lung cancer cells and S180 sarcoma in mice, which were sub-cultured and maintained by Pharmacological Center of Shanghai Pharmaceutical Industrial Research Institute.
All samples were weighed and added a small amount of Tween-80 to facilitate dissolution during the experiment, and then 0.5% CMC-Na solution was gradually added to achieve the desired concentration. The volume for experiment was 0.5 ml/20 g mouse.
The medicaments were intraperitoneally administered once a day continuously for 10 days.
For the negative control group, a vehicle of the same volume was intraperitoneally administered once a day continuously for 10 days. For the positive control group, CTX was administered in the dosage of 30 mg/kg once a day continuously for 7 days.
In vivo anti-tumor subcutaneous vaccination in the axilla was employed. Wildly grown tumor source was taken under sterile conditions to form a cell suspension of about 1×10^7 ml by homogenization method. For a corresponding mouse host, the suspension was injected in the axilla in an amount of 0.2 ml/mouse. The next day, the medicaments were administered according to the design of the tests. About three weeks later, all the groups of animals were executed. The tumors were taken from the animals and weighed. The inhibition rate of tumors was calculated according to the following formula:
T: average tumor weight of treated group; C: average tumor weight of negative control group.

S180 sarcoma = details: S180 sarcoma, Dosage 30 (mg/ml), ip × 7qd, listed as CTX
[1] = Hela cell strain, read-out: IC50 Hela
[2] = HepG2 cell strain, read-out: IC50 HepG2
[3] = NIH3T3 cell strain, read-out: IC50 NIH3T3
[4] = PLA-801 cell strain, read-out: IC50 PLA-801
[5] = BGC823 cell strain, read-out: IC50 BGC823
[6] = Lovo cell strain, read-out: IC50 Lovo
[7] = Bel7402 cell strain, read-out: IC50 Bel7402
[8] = Homo sapiens, Hela, MTT, read-out: IC50
[9] = Homo sapiens, HepG2, MTT, read-out: IC50
[10] = Mus musculus, NIH3T3, MTT, read-out: IC50
[11] = Homo sapiens, BGC-823, BGC823, MTT, read-out: IC50
[12] = Homo sapiens, Lovo, MTT, read-out: IC50
[13] = Homo sapiens, Bel-7402, BeI7402, MTT, read-out: IC50

Compound	pIC50 (Hela; [1])	pIC50 (HepG2; [2])	pIC50 (NIH3T3; [3])	pIC50 (PLA-801; [4])	pIC50 (BGC-823; [5])	pIC50 (Lovo; [6])	pIC50 (Bel-7402; [7])	other results
2,9-dibenzyl-β-carbolinium bromate [Compound 89]	4.70	4.52	4.52	4.00	4.22	4.52	4.15	–
2,9-diethyl-β-carbolinium bromate [Compound 88]	3.07	3.37	3.20	2.92	2.88	2.67	2.88	–
2,9-dimethyl-β-carbolinium bromate [Compound 87]	4.15	3.70	3.42	3.55	3.59	2.74	3.43	–
COc1ccc2c3ccnc(C)c3n(CCCc3ccccc3)c2c1 [Compound 8, 9-phenylpropyl-7-methoxy-1-methyl-β-carboline]	–	–	–	–	–	–	–	pIC50 (Hela; [8]): 4.70; pIC50 (HepG2; [9]): 4.40; pIC50 (NIH3T3; [10]): 4.70; pIC50 (PLA-801; PLA-801, MTT, read-out: IC50): 4.30; pIC50 (BGC-823; [11]): 4.30; pIC50 (Lovo; [12]): 4.52; pIC50 (Bel-7402; [13]): 4.40
COC(=O)c1cc2c(cn1)[nH]c1ccccc12 [Compound 9, methyl β-carboline-3-carboxylate]	–	–	–	–	–	–	–	pIC50 (Hela; Homo sapiens, HeLa): 4.00; pIC50 (HepG2; Homo sapiens, HepG2): 2.60; pIC50 (NIH3T3; Mus musculus, NIH3T3): 3.70; pIC50 (PLA-801): 3.51; pIC50 (BGC-823; Homo sapiens, BGC-823): 3.54; pIC50 (Lovo; Homo sapiens, LoVo): 3.77; pIC50 (Bel-7402; Homo sapiens, Bel-7402): 3.52
CCCCOC(=O)c1cc2c(cn1)[nH]c1ccccc12 [Compound 18, butyl β-carboline-3-carboxylate]	–	–	–	–	–	–	–	pIC50 (Hela; [8]): 3.54; pIC50 (HepG2; [9]): 3.57; pIC50 (NIH3T3; [10]): 3.82; pIC50 (PLA-801; PLA-801, MTT, read-out: IC50): 3.17; pIC50 (BGC-823; [11]): 3.41; pIC50 (Lovo; [12]): 4.00; pIC50 (Bel-7402; [13]): 3.51
NNC(=O)c1cc2c(cn1)[nH]c1ccccc12 [Compound 20, β-carboline-3-carbohydrazine]	–	–	–	–	–	–	–	pIC50 (Hela; Hela, MTT, read-out: IC50): 3.40; pIC50 (HepG2; HepG2, MTT, read-out: IC50): 3.44; pIC50 (NIH3T3; NIH3T3, MTT, read-out: IC50): 3.49; pIC50 (PLA-801; PLA-801, MTT, read-out: IC50): 3.13; pIC50 (BGC-823; BGC823, MTT, read-out: IC50): 3.13; pIC50 (Lovo; Lovo, MTT, read-out: IC50): 3.51; pIC50 (Bel-7402; BeI7402, MTT, read-out: IC50): 2.84
Nc1cc2c(cn1)[nH]c1ccccc12 [Compound 21, 3-amino-β-carboline]	–	–	–	–	–	–	–	pIC50 (Hela; [8]): 3.51; pIC50 (HepG2; [9]): 3.47; pIC50 (NIH3T3; [10]): 3.54; pIC50 (PLA-801; PLA-801, MTT, read-out: IC50): 3.24; pIC50 (BGC-823; [11]): 3.07; pIC50 (Lovo; [12]): 3.62; pIC50 (Bel-7402; [13]): 2.80
CCOC(=O)c1cc2c3ccccc3n(Cc3c(F)c(F)c(F)c(F)c3F)c2cn1 [Compound 46, ethyl 9-(2′,3′,4′,5′,6′-pentafluoro)benzyl-β-carboline-3-carboxylate]	3.01	3.92	4.22	4.30	4.30	4.40	5.00	–
CCOC(=O)c1cc2c3ccccc3n(CC(=O)c3ccccc3)c2cn1 [Compound 47, ethyl 9-acetophenone-β-carboline-3-carboxylate]	< 2.52	< 2.52	< 2.52	< 2.52	< 2.52	< 2.52	2.99	–
CCn1c2ccccc2c2cc(C(=O)NN)ncc21 [Compound 51, 3-carbohydrazine 9-ethyl-β-carboline]	3.62	3.59	3.29	3.29	3.96	3.72	3.43	–
NNC(=O)c1cc2c3ccccc3n(Cc3ccccc3)c2cn1 [Compound 52, 3-carbohydrazide-9-benzyl-β-carboline]	3.60	3.85	3.66	3.28	3.57	3.60	4.22	–
CCOC(=O)c1cc2c3ccccc3n(CC(=O)c3ccccc3)c2c(C)n1 [Compound 61, ethyl 9-acetophenone-1-methyl-β-carboline-3-carboxylate]	4.22	4.15	4.05	3.80	4.05	4.30	3.34	–
CCCc1nc(C(=O)O)cc2c3ccccc3n(CCCc3ccccc3)c12 [Compound 75, 9-phenylpropyl-1-propyl-β-carboline-3-carboxylic acid]	–	–	–	3.64	–	–	–	pIC50 (Hela; Homo sapiens, Hela cell strain, read-out: IC50 Hela): 3.85; pIC50 (HepG2; Homo sapiens, HepG2 cell strain, read-out: IC50 HepG2): 3.89; pIC50 (NIH3T3; Mus musculus, NIH3T3 cell strain, read-out: IC50 NIH3T3): 3.96; pIC50 (BGC-823; Homo sapiens, BGC-823, BGC823 cell strain, read-out: IC50 BGC823): 3.62; pIC50 (Lovo; Homo sapiens, Lovo cell strain, read-out: IC50 Lovo): 4.10; pIC50 (Bel-7402; Homo sapiens, Bel-7402, Bel7402 cell strain, read-out: IC50 Bel7402): 3.70
CCOC(=O)c1cc2c3ccccc3n(Cc3ccccc3)c2c[n+]1Cc1ccccc1.[O-][I+2]([O-])[O-] [Compound 85, 2,9-dibenzyl-3-ethoxycarbonyl-β-carbolinium iodate]	4.52	4.70	4.70	4.52	4.40	4.52	4.40	–
O=P1(N(CCCl)CCCl)NCCCO1 (stereo not drawn) [cyclophosphamide, reference compound]	–	–	–	–	–	–	–	Body weight of the animals, end, First time (Lewis lung cancer; Dosage 30 (mg/ml), Iv × 7qd, first time): 21.3 g and 20.2 g; Body weight of the animals, end, Second time (Lewis lung cancer; Dosage 30 (mg/ml), Iv × 7qd, second time): 21.3 g and 21.0 g; Body weight of the animals, beginning, First time (Lewis lung cancer; Dosage 30, Iv × 7qd, first time): 20.1 g and 18.8 g; Body weight of the animals, beginning, Second time (Lewis lung cancer; Dosage 30, Iv × 7qd, second time): 18.9 g and 19.8 g; Body weight of the animals, beginning, First time (S180 sarcoma; first time): 19.4 g and 18.7 g; Body weight of the animals, end, First time (S180 sarcoma; first time): 20.9 g and 22.3 g; Weight of the tumor X ± SD, First time (S180 sarcoma; first time): 0.33 ± 0.14 g and 0.33 ± 0.12 g; Body weight of the animals, beginning, Second time (S180 sarcoma; second time): 19.8 g and 20.3 g; Body weight of the animals, end, Second time (S180 sarcoma; second time): 23.2 g and 20.9 g
